In US6905841B2, “Enzymatic substrates for detecting Pseudomonas aeruginas” (Biomerieux S.A., priority 1999, dated 2005):
Read-outs that look alike come from different tables or passages of the source.

Key:
β-alanine aminopeptidase [1] = assay: APIZYM-type test strips with β-alanyl-β-naphthylamide; type: cell-based; details: Shigella spp.; 4 strains
β-alanine aminopeptidase [2] = assay: as above; type: cell-based; details: Shigella sonnei; five strains
β-alanine aminopeptidase [3] = assay: as above; type: cell-based; details: Salmonella spp.; five strains
β-alanine aminopeptidase [4] = assay: as above; type: cell-based; details: Salmonella arizonae; five strains
β-alanine aminopeptidase [5] = assay: as above; type: cell-based; details: Klebsiella pneumoniae, spp. pneumoniae; five strains
β-alanine aminopeptidase [6] = assay: as above; type: cell-based; details: Klebsiella pneumoniae, spp. oxytoca; five strains
β-alanine aminopeptidase [7] = assay: as above; type: cell-based; details: Klebsiella rhinoscleromatis; 3 strains
β-alanine aminopeptidase [8] = assay: as above; type: cell-based; details: Hafnia alvei; five strains
β-alanine aminopeptidase [9] = assay: as above; type: cell-based; details: Enterobacter cloacae; five strains
β-alanine aminopeptidase [10] = assay: as above; type: cell-based; details: Proteus vulgaris; five strains
β-alanine aminopeptidase [11] = assay: as above; type: cell-based; details: Proteus rettgeri; five strains
β-alanine aminopeptidase [12] = assay: as above; type: cell-based; details: Providencia stuartii; five strains
β-alanine aminopeptidase [13] = assay: as above; type: cell-based; details: Pseudomonas alcaligenes; five strains
β-alanine aminopeptidase [14] = assay: as above; type: cell-based; details: Stenotrophomonas maltophilia; five strains
β-alanine aminopeptidase [15] = assay: as above; type: cell-based; details: Ralstonia picketti; five strains
β-alanine aminopeptidase [16] = assay: as above; type: cell-based; details: Oligella ureolytica; 2 strains
β-alanine aminopeptidase [17] = assay: as above; type: cell-based; details: Vibrio alginolyticus; five strains
β-alanine aminopeptidase [18] = assay: as above; type: cell-based; details: Weeksella virosa; 4 strains
β-alanine aminopeptidase [19] = assay: as above; type: cell-based; details: Pasteurella multocida; five strains
β-alanine aminopeptidase [20] = assay: as above; type: cell-based; details: Pasteurella haemolytica; five strains
β-alanine aminopeptidase [21] = assay: as above; type: cell-based; details: proches de Pasteurella; 4 strains
β-alanine aminopeptidase [22] = assay: as above; type: cell-based; details: Actinobacillus spp.; five strains
β-alanine aminopeptidase [23] = assay: as above; type: cell-based; details: Pseudomonas aeruginosa; five strains
β-alanine aminopeptidase [24] = assay: as above; type: cell-based; details: Ochrobactrum anthropi; five strains
β-alanine aminopeptidase [25] = details: Enterobacter intermedius; 1 strain tested; read after 22 to 24 hours
β-alanine aminopeptidase [26] = details: Escherichia coli; 2 strains tested; read after 22 to 24 hours
β-alanine aminopeptidase [27] = details: Providencia stuartii; 1 strain tested; read after 22 to 24 hours
β-alanine aminopeptidase [28] = details: Serratia marcescens; 3 strains tested; read after 22 to 24 hours
β-alanine aminopeptidase [29] = details: Acinetobacter baumannii; 2 strains tested; read after 22 to 24 hours
β-alanine aminopeptidase [30] = details: Aeromonas hydrophila; 2 strains tested; read after 22 to 24 hours
β-alanine aminopeptidase [31] = details: Chryseobacterium meningosepticum; 2 strains tested; read after 22 to 24 hours
β-alanine aminopeptidase [32] = details: Myroïdes spp.; 1 strain tested; read after 22 to 24 hours
β-alanine aminopeptidase [33] = details: Pseudomonas aeruginosa; 13 strains tested; read after 22 to 24 hours
β-alanine aminopeptidase [34] = details: Pseudomonas putida; 1 strain tested; read after 22 to 24 hours
β-alanine aminopeptidase [35] = details: Shewanella putrefaciens; 1 strain tested; read after 22 to 24 hours
β-alanine aminopeptidase [36] = details: Stenotrophomonas maltophilia; 2 strains tested; read after 22 to 24 hours
β-alanine aminopeptidase [37] = details: Streptococcus pyogenes; 2 strains tested; read after 22 to 24 hours

In the case of β-alanyl-β-naphthylamide, the “β-alanine aminopeptidase activity, result” value (β-alanine aminopeptidase [1]) is reported as “negative”, the “β-alanine aminopeptidase activity, result” value (β-alanine aminopeptidase [2]) is reported as “negative” and the “β-alanine aminopeptidase activity, result” value (β-alanine aminopeptidase [3]) is reported as “negative”. The “β-alanine aminopeptidase activity, result” value (β-alanine aminopeptidase [4]) was “negative”, the “β-alanine aminopeptidase activity, result” value (β-alanine aminopeptidase [5]) was “negative” and the “β-alanine aminopeptidase activity, result” value (β-alanine aminopeptidase [6]) was “negative”. The “β-alanine aminopeptidase activity, result” value (β-alanine aminopeptidase [7]) was “negative”, the “β-alanine aminopeptidase activity, result” value (β-alanine aminopeptidase [8]) was “negative” and the “β-alanine aminopeptidase activity, result” value (β-alanine aminopeptidase [9]) was “negative”. For the same compound, the “β-alanine aminopeptidase activity, result” value (β-alanine aminopeptidase [10]) was “negative”, the “β-alanine aminopeptidase activity, result” value (β-alanine aminopeptidase [11]) was “negative” and the “β-alanine aminopeptidase activity, result” value (β-alanine aminopeptidase [12]) was “negative”. The “β-alanine aminopeptidase activity, result” value (β-alanine aminopeptidase [13]) was “negative”, the “β-alanine aminopeptidase activity, result” value (β-alanine aminopeptidase [14]) was “negative” and the “β-alanine aminopeptidase activity, result” value (β-alanine aminopeptidase [15]) was “negative”. The “β-alanine aminopeptidase activity, result” value (β-alanine aminopeptidase [16]) was “negative”, the “β-alanine aminopeptidase activity, result” value (β-alanine aminopeptidase [17]) was “negative” and the “β-alanine aminopeptidase activity, result” value (β-alanine aminopeptidase [18]) was “negative”. The “β-alanine aminopeptidase activity, result” value (β-alanine aminopeptidase [19]) was “negative”, the “β-alanine aminopeptidase activity, result” value (β-alanine aminopeptidase [20]) was “negative” and the “β-alanine aminopeptidase activity, result” value (β-alanine aminopeptidase [21]) was “negative”. For the same compound, the “β-alanine aminopeptidase activity, result” value (β-alanine aminopeptidase [22]) was “negative”, the “β-alanine aminopeptidase activity, result” value (β-alanine aminopeptidase [23]) was “positive” and the “β-alanine aminopeptidase activity, result” value (β-alanine aminopeptidase [24]) was “positive”.

In the case of NCCC(=O)c1c(N)cc(Cl)c(O)c1Cl, the “Number of negative results” value (β-alanine aminopeptidase [25]) is reported as 1, the Number positive results (β-alanine aminopeptidase [25]) is reported as 0 and the “Number of negative results” value (β-alanine aminopeptidase [26]) is reported as 2. The Number positive results (β-alanine aminopeptidase [26]) was 0, the “Number of negative results” value (β-alanine aminopeptidase [27]) was 1 and the Number positive results (β-alanine aminopeptidase [27]) was 0. For the same compound, the “Number of negative results” value (β-alanine aminopeptidase [28]) was 0, the Number positive results (β-alanine aminopeptidase [28]) was 3 and the “Number of negative results” value (β-alanine aminopeptidase [29]) was 2. For the same compound, the Number positive results (β-alanine aminopeptidase [29]) was 0, the “Number of negative results” value (β-alanine aminopeptidase [30]) was 2 and the Number positive results (β-alanine aminopeptidase [30]) was 0. For the same compound, the “Number of negative results” value (β-alanine aminopeptidase [31]) was 2, the Number positive results (β-alanine aminopeptidase [31]) was 0 and the “Number of negative results” value (β-alanine aminopeptidase [32]) was 1. For the same compound, the Number positive results (β-alanine aminopeptidase [32]) was 0, the “Number of negative results” value (β-alanine aminopeptidase [33]) was 0 and the Number positive results (β-alanine aminopeptidase [33]) was 13. The “Number of negative results” value (β-alanine aminopeptidase [34]) was 1, the Number positive results (β-alanine aminopeptidase [34]) was 0 and the “Number of negative results” value (β-alanine aminopeptidase [35]) was 1. For the same compound, the Number positive results (β-alanine aminopeptidase [35]) was 0, the “Number of negative results” value (β-alanine aminopeptidase [36]) was 2 and the Number positive results (β-alanine aminopeptidase [36]) was 0. The “Number of negative results” value (β-alanine aminopeptidase [37]) was 2 and the Number positive results (β-alanine aminopeptidase [37]) was 0.
